{"source": "ChEMBL document CHEMBL1133239", "about": "“Acid catalyzed Michael additions to artemisitene” (2000)", "key": {"Plasmodium falciparum [1]": {"tested_on": "Plasmodium falciparum", "test": "Relative antimalarial activity compared to artemisinin against Plasmodium falciparum D6", "format": "functional"}, "Plasmodium falciparum [2]": {"tested_on": "Plasmodium falciparum", "test": "Relative antimalarial activity compared to artemisinin against Plasmodium falciparum W-2", "format": "functional"}}}
{"smiles": "C[C@@H]1CC[C@H]2[C@H](CC3C=CC(=O)O3)C(=O)O[C@@H]3OC4(C)CC[C@@H]1[C@]32OO4", "note": "(single isomer, unassigned)", "values": [{"measurement": "Relative activity", "setting": "Plasmodium falciparum [1]", "result": 0.33}, {"measurement": "Relative activity", "setting": "Plasmodium falciparum [2]", "result": 0.037}]}
{"smiles": "C[C@@H]1CC[C@H]2[C@@H](CC3CCCC3=O)C(=O)O[C@@H]3OC4(C)CC[C@@H]1[C@]32OO4", "note": "(single isomer, unassigned)", "values": [{"measurement": "Relative activity", "setting": "Plasmodium falciparum [1]", "result": 0.47}, {"measurement": "Relative activity", "setting": "Plasmodium falciparum [2]", "result": 0.29}]}
{"smiles": "C[C@@H]1CC[C@H]2[C@H](CC#N)C(=O)O[C@@H]3OC4(C)CC[C@@H]1[C@]32OO4", "note": "(single isomer, unassigned)", "values": [{"measurement": "Relative activity", "setting": "Plasmodium falciparum [1]", "result": 0.17}, {"measurement": "Relative activity", "setting": "Plasmodium falciparum [2]", "result": 0.036}]}
{"smiles": "C[C@@H]1CC[C@H]2[C@@H](CCC(=O)C(C)(C)C)C(=O)O[C@@H]3OC4(C)CC[C@@H]1[C@]32OO4", "note": "(single isomer, unassigned)", "values": [{"measurement": "Relative activity", "setting": "Plasmodium falciparum [1]", "result": 7.4}, {"measurement": "Relative activity", "setting": "Plasmodium falciparum [2]", "result": 1.13}]}
{"smiles": "C=CCC[C@H]1C(=O)O[C@@H]2OC3(C)CC[C@H]4[C@H](C)CC[C@@H]1[C@@]24OO3", "note": "(single isomer, unassigned)", "values": [{"measurement": "Relative activity", "setting": "Plasmodium falciparum [1]", "result": 2.3}, {"measurement": "Relative activity", "setting": "Plasmodium falciparum [2]", "result": 2.9}]}
{"smiles": "C[C@@H]1CC[C@H]2[C@@H](CC3C=CC(=O)O3)C(=O)O[C@@H]3OC4(C)CC[C@@H]1[C@]32OO4", "note": "(single isomer, unassigned)", "values": [{"measurement": "Relative activity", "setting": "Plasmodium falciparum [1]", "result": 0.058}, {"measurement": "Relative activity", "setting": "Plasmodium falciparum [2]", "result": 0.03}]}
{"smiles": "C[C@@H]1CC[C@H]2[C@H](CCC(=O)C(C)(C)C)C(=O)O[C@@H]3OC4(C)CC[C@@H]1[C@]32OO4", "note": "(single isomer, unassigned)", "values": [{"measurement": "Relative activity", "setting": "Plasmodium falciparum [1]", "result": 4.5}, {"measurement": "Relative activity", "setting": "Plasmodium falciparum [2]", "result": 0.74}]}
{"smiles": "C[C@@H]1CC[C@H]2[C@@H](CC/C(=C/C(=O)c3ccccc3)c3ccccc3)C(=O)O[C@@H]3OC4(C)CC[C@@H]1[C@]32OO4", "note": "(single isomer, unassigned)", "values": [{"measurement": "Relative activity", "setting": "Plasmodium falciparum [1]", "result": 6.2}, {"measurement": "Relative activity", "setting": "Plasmodium falciparum [2]", "result": 0.55}]}
{"smiles": "C[C@@H]1CC[C@H]2[C@@H](CC#N)C(=O)O[C@@H]3O[C@@]4(C)CC[C@@H]1[C@]32OO4", "values": [{"measurement": "Relative activity", "setting": "Plasmodium falciparum [1]", "result": 0.17}, {"measurement": "Relative activity", "setting": "Plasmodium falciparum [2]", "result": 0.036}]}
